The text below walks through data of patent publication US20240327354A1, “GRAM-NEGATIVE BACTERIA EFFLUX PUMP INHIBITORS” (INSTITUT NATIONAL DE LA SANTÉ ET DE LA RECHERCHE MÉDICALE, priority 2021, published 2024).

The test system of test [1] is E. coli BW25113. As to the kind of experiment: Assay 1: growth inhibition of E. coli by sub-inhibitory pyridomycin in combination with examples (resazurin reduction). The class given is cell-based, Escherichia coli. Particulars: read-out: EC50 on E. coli with 8 μg/mL of pyridomycin, 8 μg/mL pyridomycin, 5 h, 37° C. The gist of the method: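 E. coli BW25113 at OD600 0.0004–0.001 was grown in CAMHB at 37 °C. Viability was read by resazurin reduction fluorescence (Ex 530/Em 590 nm). EC50 is the concentration preventing 50% of resazurin turnover relative to untreated bacteria.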
(In general: The colour change of resazurin is a common sign of viable cells or microbes.)

Test [2] deals with A. baumannii LMG 1025 (ATCC 17978). Nature of the test: Assay 2: growth inhibition of A. baumannii by sub-inhibitory chloramphenicol in combination with examples (resazurin reduction). Particulars: read-out: EC90 on A. baumannii with 10 μg/mL of chloramphenicol, 10 μg/mL chloramphenicol, 5 h or 24 h, 37° C. Format: cell-based, Acinetobacter baumannii. From the text: (§1) Escherichia coli BW25113 (CGSC 7636) and its derivatives E. coli ΔtolC (JW5503-1, ΔtolC732::kan, CGSC 11430), E. coli ΔacrA (JW0452-3, ΔacrA748::kan, CGSC 11843) and E. coli ΔacrB (JW0451-2, ΔacrB747::kan, CGSC 8609) were obtained from E. coli Genetic Stock Center (CGSC, New Haven, Connecticut) and originated from the Keio Collection (Baba T et al, Mol Sys Biol, 2006). Klebsiella pneumoniae (LMG 2095/ATCC 13883) and K. pneumoniae (ATCC43816), Pseudomonas aeruginosa (PAO1), Acinetobacter baumannii (LMG 1025, ATCC 17978), were obtained from ATCC or BCCM/LMG Bacteria Collection. All bacteria were grown and tested in cation-adjusted Mueller-Hinton broth (CAMHB; BD Difco) at 37° C. For conservation, log phase bacteria were frozen (−80° C.) in CAMHB supplemented with 15% glycerol.
Measurement of Growth Inhibition of A. baumannii Strains by Sub Inhibitory Concentrations of Chloramphenicol in Combination with Examples 1-137
(§2) For the evaluation of the dose dependent activity of examples 1-137, their ability to boost the antibacterial activity of sub-inhibitory concentrations chloramphenicol was determined. Briefly, A. baumannii LMG 1025 (ATCC 17978) were diluted from frozen or growing stocks to an OD600 of 0.001 in CAMHB. The bacterial suspension was then used as such (no-antibiotic control to evaluate EPI activity), or spiked with chloramphenicol at a final concentration of 10 μg/mL. Bacteria were then added to microplates carrying serial dilutions of the compounds examples 1-137, and incubated for (5 h or 24 h, 37° C.). Bacterial viability was evaluated using the resazurin reduction assay, and measured by fluorescence (POLARstar Omega, BMG Labtech: Ex: 530 nm Em: 590 nm). […] were defined as the compound concentration that prevented 90% of resazurin turnover compared to the non-treated bacteria.

Test [3] has the same test system. As to the kind of experiment: Assay 3: growth inhibition of A. baumannii by sub-inhibitory novobiocin in combination with examples (resazurin reduction). The class given is cell-based, Acinetobacter baumannii.
Source text: as §1
Measurement of growth Inhibition of A. baumannii strains by sub Inhibitory concentrations of novobiocin In combination with examples 1-137
as §2, with “concentrations novobiocin” for “concentrations chloramphenicol”, “such (no—antibiotic” for “such (no-antibiotic”, “with novobiocin” for “with chloramphenicol”, “of 5” for “of 10”

The mark [4] stands for this setting: 5 μg/mL novobiocin, 5 h or 24 h, 37° C., read-out: EC90 on A. baumannii with 5 μg/mL of novobiocin.

Structures can show the parent of a compound that is named as a salt. Bounds are passed on as bounds.

As to `Cc1ccc2nc(N3CCNCC3)c(Br)cc2c1` [Example 55, 3-bromo-6-methyl-2-piperazin-1-yl-quinoline;hydrochloride], the EC50 in test [1] is less than 5 µM. In addition, the EC90 in test [2] lay in the range of 100 to 500 µM.

`Cc1cccc2cc(Cl)c(N3CCNCC3)nc12` [Example 59, 3-chloro-8-methyl-2-piperazin-1-yl-quinoline;hydrochloride]: the EC50 in test [1] is less than 5 µM. For the same compound, the EC90 in test [2] is 100 to 500 µM.

As for `COc1nc2ccccc2nc1N1CCNCC1` [Example 82, 2-methoxy-3-piperazin-1-yl-quinoxaline; 2,2,2-trifluoroacetic acid], the EC50 in test [1] was in the range of 5 to 100 µM. Further, the EC90 in test [2] lay in the range of 100 to 500 µM.

Take `Clc1nc2ccccc2nc1N1CC2CC(C1)N2` [Example 83, 2-chloro-3-(3,6-diazabicyclo[3.1.1]heptan-3-yl)quinoxaline; trifluoromethanesulfonic acid]: in test [1], the EC50 is 100 to 500 µM. The EC90 in test [2] lay within 100 to 500 µM.

For the compound `NCCc1ccccc1C#Cc1cnc(N2CCNCC2)c(Cl)c1` [Example 90, 2-[2-[2-(5-chloro-6-piperazin-1-yl-3-pyridyl)ethynyl]phenyl]ethanamine; 2,2,2-trifluoroacetic acid], the EC50 in test [1] is less than 5 µM. Moreover, the EC90 in test [3] (setting [4]) was 5 to 100 µM.

On to `NCCc1cccc(C#Cc2cnc(N3CCNCC3)c(Cl)c2)c1` [Example 91, 2-[3-[2-(5-chloro-6-piperazin-1-yl-3-pyridyl)ethynyl]phenyl]ethanamine; 2,2,2-trifluoroacetic acid], for which the EC50 in test [1] is less than 5 µM. For the same compound, in test [3] (setting [4]), the EC90 was in the range of 5 to 100 µM.

On to `Cc1c(Cl)ccc2cc(Cl)c(N3CCNCC3)nc12` [Example 98, 3,7-dichloro-8-methyl-2-piperazin-1-yl-quinoline;hydrochloride], for which, in test [1], the EC50 was less than 5 µM. In test [2], the EC90 is 5 to 100 µM.

Regarding `NCCCCNc1ccc2nc(N3CCNCC3)c(Cl)cc2c1` [Example 105, N′-(3-chloro-2-piperazin-1-yl-6-quinolyl)butane-1,4-diamine;dihydrochloride], in test [1], the EC50 was less than 5 µM. Moreover, in test [3] (setting [4]), the EC90 lay in the range of 5 to 100 µM.

With `Clc1cc2cc(-c3ccccc3)ccc2nc1N1CCNCC1` [Example 106, 3-chloro-6-phenyl-2-piperazin-1-yl-quinoline;hydrochloride], the EC50 in test [1] fell in the range of 5 to 100 µM. Also, the EC90 in test [2] was 5 to 100 µM.

With `NCc1ccc(-c2ccc3nc(N4CCNCC4)c(Cl)cc3c2)cc1` [Example 107, [4-(3-chloro-2-piperazin-1-yl-6-quinolyl)phenyl]methanamine;dihydrochloride], the EC50 in test [1] was less than 5 µM. Further, the EC90 in test [3] (setting [4]) lay within 5 to 100 µM.

`CN(C)Cc1cccc(-c2ccc3nc(N4CCNCC4)c(Cl)cc3c2)c1` [Example 110, 1-[3-(3-chloro-2-piperazin-1-yl-6-quinolyl)phenyl]-N,N-dimethyl-methanamine;dihydrochloride]: in test [1], the EC50 is less than 5 µM. Also, the EC90 in test [3] (setting [4]) lay in the range of 5 to 100 µM.

For `NCc1ccccc1-c1ccc2nc(N3CCNCC3)c(Cl)cc2c1` [Example 111, [2-(3-chloro-2-piperazin-1-yl-6-quinolyl)phenyl]methanamine;dihydrochloride], the EC50 in test [1] was less than 5 µM. For the same compound, the EC90 in test [3] (setting [4]) lay within 5 to 100 µM.

Consider `C[C@H](N)c1cccc(-c2ccc3nc(N4CCNCC4)c(Cl)cc3c2)c1` [Example 112, (1S)-1-[3-(3-chloro-2-piperazin-1-yl-6-quinolyl)phenyl]ethanamine; dihydrochloride], for which, in test [1], the EC50 was less than 5 µM. The EC90 in test [3] (setting [4]) was 5 to 100 µM.

For the compound `NCCc1ccc(-c2ccc3nc(N4CCNCC4)c(Cl)cc3c2)cc1` [Example 116, 2-[4-(3-chloro-2-piperazin-1-yl-6-quinolyl)phenyl]ethanamine;dihydrochloride], the EC50 in test [1] was less than 5 µM. Further, in test [3] (setting [4]), the EC90 fell in the range of 5 to 100 µM.

For the compound `Cc1c(CN)cccc1-c1ccc2nc(N3CCNCC3)c(Cl)cc2c1` [Example 117, [3-(3-chloro-2-piperazin-1-yl-6-quinolyl)-2-methyl-phenyl]methanamine;dihydrochloride], in test [1], the EC50 was less than 5 µM. Further, the EC90 in test [3] (setting [4]) fell in the range of 5 to 100 µM.

Consider `COc1c(CN)cccc1-c1ccc2nc(N3CCNCC3)c(Cl)cc2c1` [Example 118, [3-(3-chloro-2-piperazin-1-yl-6-quinolyl)-2-methoxy-phenyl]methanamine;dihydrochloride], for which, in test [1], the EC50 was less than 5 µM. Further, in test [3] (setting [4]), the EC90 was in the range of 5 to 100 µM.

Regarding `Cc1ccc(CN)cc1-c1ccc2nc(N3CCNCC3)c(Cl)cc2c1` [Example 119, [3-(3-chloro-2-piperazin-1-yl-6-quinolyl)-4-methyl-phenyl]methanamine;dihydrochloride], the EC50 in test [1] was less than 5 µM. The EC90 in test [3] (setting [4]) lay in the range of 5 to 100 µM.

Turning to `COc1ccc(CN)cc1-c1ccc2nc(N3CCNCC3)c(Cl)cc2c1` [Example 120, [3-(3-chloro-2-piperazin-1-yl-6-quinolyl)-4-methoxy-phenyl]methanamine;dihydrochloride], the EC50 in test [1] is less than 5 µM. Further, in test [3] (setting [4]), the EC90 was 5 to 100 µM.

Take `NCc1ccc(Cl)c(-c2ccc3nc(N4CCNCC4)c(Cl)cc3c2)c1` [Example 121, [4-chloro-3-(3-chloro-2-piperazin-1-yl-6-quinolyl)phenyl]methanamine;dihydrochloride]: the EC50 in test [1] was less than 5 µM. Besides, in test [3] (setting [4]), the EC90 is 5 to 100 µM.

Take `Cc1cc(CN)cc(-c2ccc3nc(N4CCNCC4)c(Cl)cc3c2)c1` [Example 123, [3-(3-chloro-2-piperazin-1-yl-6-quinolyl)-5-methyl-phenyl]methanamine;dihydrochloride]: the EC50 in test [1] is less than 5 µM. For the same compound, the EC90 in test [3] (setting [4]) was in the range of 5 to 100 µM.

For `COc1cc(CN)cc(-c2ccc3nc(N4CCNCC4)c(Cl)cc3c2)c1` [Example 124, [3-(3-chloro-2-piperazin-1-yl-6-quinolyl)-5-methoxy-phenyl]methanamine;dihydrochloride], the EC50 in test [1] was less than 5 µM. For the same compound, the EC90 in test [3] (setting [4]) is 5 to 100 µM.

As to `NCc1cc(-c2ccc3nc(N4CCNCC4)c(Cl)cc3c2)cc(C(F)(F)F)c1` [Example 125, [3-(3-chloro-2-piperazin-1-yl-6-quinolyl)-5-(trifluoromethyl)phenyl]methanamine;dihydrochloride], in test [1], the EC50 is less than 5 µM. Further, the EC90 in test [3] (read-out: EC90 on A. baumannii with 5 μg/mL of novobiocin, 5 μg/mL novobiocin, 5 h or 24 h, 37° C.) was in the range of 5 to 100 µM.

For the compound `Cc1ccc(-c2ccc3nc(N4CCNCC4)c(Cl)cc3c2)cc1CN` [Example 126, [5-(3-chloro-2-piperazin-1-yl-6-quinolyl)-2-methyl-phenyl]methanamine;dihydrochloride], the EC50 in test [1] is less than 5 µM. Also, the EC90 in test [3] (setting [4]) lay in the range of 5 to 100 µM.

Turning to `COc1ccc(-c2ccc3nc(N4CCNCC4)c(Cl)cc3c2)cc1CN` [Example 127, [5-(3-chloro-2-piperazin-1-yl-6-quinolyl)-2-methoxy-phenyl]methanamine;dihydrochloride], in test [1], the EC50 is less than 5 µM. The EC90 in test [3] (setting [4]) was 5 to 100 µM.

As for `NCc1cc(-c2ccc3nc(N4CCNCC4)c(Cl)cc3c2)ccc1Cl` [Example 128, [2-chloro-5-(3-chloro-2-piperazin-1-yl-6-quinolyl)phenyl]methanamine;dihydrochloride], in test [1], the EC50 is less than 5 µM. For the same compound, the EC90 in test [3] (setting [4]) lay in the range of 5 to 100 µM.

Regarding `Clc1cc2cc(-c3cccc4c3CNC4)ccc2nc1N1CCNCC1` [Example 134, 3-chloro-6-isoindolin-4-yl-2-piperazin-1-yl-quinoline;dihydrochloride], the EC50 in test [1] was less than 5 µM. For the same compound, in test [2], the EC90 lay in the range of 5 to 100 µM.
